Assay results published in patent publication US6991818B2, “Compound iso-squamocin obtained from seeds of annona squamosa and composition containing the same” (Council of Scientific & Industrial Research, priority 2001, dated 2006).
Values after ≈ are worked out from the molar mass of the structure shown. Like-named read-outs stand apart in the source and are kept apart here.

What was measured:
[1] = system: yellow fever mosquito Aedes aegyptii; conditions: cited from earlier work
[2] = system: certain human tumor cell lines; conditions: values as low as; cited from earlier work
lung cell line (A-549) = conditions: cited from earlier work
colon cell line (H-29) = conditions: cited from earlier work
[3] = system: newly hatched variegated cutworm (peridroma saucia, Noctuidae); assay: Chronic larval growth bioassay; type: in vivo; conditions: 10 days at 26° C.; for activity at 20 ppm: Peridroma saucia, 240 h; for activity at 20 ppm / Larval growth, % of control / Larval survival, % of control: newly hatched larvae (n=20), 20 ppm
Procedure: Chromic larveal growth bioassay % of control given in parenthesis. […] These bioassays were carried out according to the procedure described earlier (M. B. Isman, O. Koul, A. Luczynski and J. Kaminski, J. Agric. Food Chem. 38, 1406 (1990). These tests were performed by Prof. M. B. Isman and colleagues at University of British Columbia, Vancouver, Canada.

[4] = Solubility of the waxy substance; type: physicochemical
corn plant hopper (CP-H) = assay: Evaluation screen delayed toxicity test (EVADT); type: in vivo; conditions: 250 ppm
Description: (§1) Two spotted spidermite, green peach aphid (GPA) and corn plant hopper (GPH) when they were subjected evaluation screen (Eval) and evaluation screen delayed toxicity test EVDT for the insecticidal activity and results are summarized below: […]

[5] = system: Two spotted spidermite (TSSM); assay: Evaluation screen delayed toxicity test (EVADT); type: in vivo; conditions: 250 ppm
Description: as §1

[6] = system: oriental armyworm (Mythimna separata WLK) larvae; assay: Insect antifeedant bioassay on sorghum leaf discs; type: in vivo; conditions: for Damage rating: 0.05% in methanol, visual scale 1 to 9 (1=<10%, 9=>80% leaf area consumed); for mortality: first and third instar larvae, concentration of 0.05% (MeOH) at 27°, untreated control 7% mortality
Procedure: The sample solutions (10 μl of a 0.05% solution) were applied evenly to the lower surface of leaf discs (5 cm^2) cut from sorghum hybrid variety CSH5 and the discs were allowed to dry on filter papers. After drying the leaf, discs were offered to 10 first instar M. separata larvae in plastic cups or to one third instar larva in 9-cm (diameter) plastic petric dishes. All larvae were starved for 2 h before the test and the leaf and the leaf discs were kept on moisture filter papers to keep them turgid. The larvae were confined to leaf discs for 24 h and during the period the larvae scratched or consumed >80% of the leaf disc area in the untreated controls. The leaf discs were rated visually for the extent of feeding on a scale upto 1 to 9 (1=<10%, 2=11 to 20%, 3=21 to 30%, 4=31 to 40%, 5=41 to 7=61 to 70%, 8=71 to 80%, 9=>80% leaf area scratched consumed). The larvae were then stirred for 12 h and weighed. Isosquamocin was evaluated by this procedure and the results have shown that it drastically. The feeding of the leaves of sorghum hybrid variety CSH 5 at a concentration of 0.05% in methanol) in comparison with control (methanol) against the first instar and third instar larvae of oriental armyworm (Mythimna separata WLK). It is very toxic to first instar larvae causing high larval mortality and the results are presented below: […]

[7] = system: Two spotted spidermite (TSSM); assay: Evaluation screen (EVAL) for insecticidal activity; type: in vivo; conditions: 250 ppm
Description: as §1

[8] = system: Southern Corn rootworm (SCRW); assay: Evaluation screen (EVAL) for insecticidal activity; type: in vivo; conditions: 250 ppm
green peach aphid (GPA) = assay: Evaluation screen delayed toxicity test (EVADT); type: in vivo; conditions: 250 ppm
Description: as §1

L-5178 Y = conditions: in vitro cytotoxic activity against L-5178 Y; cited from earlier work
southern corn rootworm = conditions: in vivo; cited from earlier work
cotton aphid = conditions: in vivo; cited from earlier work
two sported spider mite = conditions: in vivo; cited from earlier work
[9] = First instar larvae, 0.05% in methanol on leaf discs, 24 h

## CCCCCCCCCC[C@H](O)[C@H]1CC[C@H]([C@H](O)CC[C@H](O)[C@@H]2CC[C@@H](CCCCCCC[C@@H](O)CC3=C[C@H](C)OC3=O)O2)O1 [bullatalicin, bullatalicin/squamostatin-B]
[1]
  LC 50: 9 mg/lit^−1
[2]
  ED50: ≥ 10^−7 ug/ml
Lung cell line (A-549)
  times more toxic than adriamycin: about 10,000 times
Colon cell line (H-29)
  times more toxic than adriamycin: about 10,000 times
[3]; read-out: Larval growth, % of control
  activity at 20 ppm: 135%
[3]; read-out: Larval survival, % of control
  activity at 20 ppm: 100%

## CCCCCCCCCCCCC(O)C1CCC(C(O)CCCCC(O)CCCCCC(O)CC2=CC(C)OC2=O)O1 (stereo not drawn) [annonacin A, reference compound]
[1]
  LC 50: 10.8 mg/lit^−1

## isosquamocin
[4]
  Solubility in ether, chloroform, dichloromethane, acetone, methanol and ethyl acetate: readily soluble
  Solubility in petroleum ether/hexane and water: insoluble or very sparingly soluble
Corn plant hopper (CP-H)
  CP-H: G8 (Greater than 80% reduction in population)
[5]
  TSSM: L9 (Less than 90% reduction in population)
[6]; [9]
  Larval Survival (%): 10.4%
  Mean larval mass: 0.2 mg
[6]; First instar larvae
  Damage rating: 1.3
[6]; Third instar larvae, 0.05% in methanol on leaf discs, 24 h
  Mean larval mass: 15.7 mg
[6]; Third instar larvae
  Damage rating: 1.0
[6]
  mortality: 70%
[7]
  TSSM: L8 (Less than 80% mortality)
[8]
  SCRW: 100
[3]
  Larval growth, % of control: 20%
  Larval survival, % of control: 55%

## CCCCCCCCCC[C@H](O)[C@H]1CC[C@H]([C@H]2CC[C@H]([C@H](O)CCCCCCCCCC[C@@H](O)CC3=C[C@H](C)OC3=O)O2)O1 [squamocin-G]
Corn plant hopper (CP-H)
  CP-H: G8 (Greater than 80% reduction in population)
Green peach aphid (GPA)
  GPA: L8 (Less than 80% mortality)
[5]
  TSSM: L9 (Less than 90% reduction in population)
[6]
  mortality: 70%
[7]
  TSSM: L8 (Less than 80% mortality)
[8]
  SCRW: 100
[3]
  Larval growth, % of control: 34%
  Larval survival, % of control: 45%
[3]; chronic larval growth bioassay
  EC 50: 5.65 ppm
  LC 50: 12 ppm

## bullatanocin/squamostatin-C/Annonin-V/Cherimolin-II
Lung cell line (A-549)
  times more toxic than adriamycin: about 10,000 times
Colon cell line (H-29)
  times more toxic than adriamycin: about 10,000 times

## CCCCCC[C@@H](O)CCC[C@H](O)[C@@H]1CC[C@@H]([C@H](O)CC[C@@H](O)[C@@H]2CC[C@@H](CCCCCCCCCC3=C[C@@H](C)OC3=O)O2)O1 [squamostatin-A]
L-5178 Y
  IC50: 0.5 µg/mL (≈ 0.783 µM)
[3]
  Larval growth, % of control: 138%
  Larval survival, % of control: 100%

## bullatacin
Southern corn rootworm
  insecticidal concentration, southern corn rootworm: 24 ppm
Cotton aphid
  insecticidal concentration, cotton aphid: 1 ppm
Two sported spider mite
  insecticidal concentration, two sported spider mite: 10 ppm
